These results are taken from article PMC2851405 (Biochemistry, 2010).

The target in this test is HPAO-1 (Ogataea angusta, UniProt P12807). Kind of test: phenylhydrazone formation, absorbance. The class given is binding. The following applies: covalent; adduct with TPQ cofactor.
Sequence of HPAO-1 (P12807 whole entry): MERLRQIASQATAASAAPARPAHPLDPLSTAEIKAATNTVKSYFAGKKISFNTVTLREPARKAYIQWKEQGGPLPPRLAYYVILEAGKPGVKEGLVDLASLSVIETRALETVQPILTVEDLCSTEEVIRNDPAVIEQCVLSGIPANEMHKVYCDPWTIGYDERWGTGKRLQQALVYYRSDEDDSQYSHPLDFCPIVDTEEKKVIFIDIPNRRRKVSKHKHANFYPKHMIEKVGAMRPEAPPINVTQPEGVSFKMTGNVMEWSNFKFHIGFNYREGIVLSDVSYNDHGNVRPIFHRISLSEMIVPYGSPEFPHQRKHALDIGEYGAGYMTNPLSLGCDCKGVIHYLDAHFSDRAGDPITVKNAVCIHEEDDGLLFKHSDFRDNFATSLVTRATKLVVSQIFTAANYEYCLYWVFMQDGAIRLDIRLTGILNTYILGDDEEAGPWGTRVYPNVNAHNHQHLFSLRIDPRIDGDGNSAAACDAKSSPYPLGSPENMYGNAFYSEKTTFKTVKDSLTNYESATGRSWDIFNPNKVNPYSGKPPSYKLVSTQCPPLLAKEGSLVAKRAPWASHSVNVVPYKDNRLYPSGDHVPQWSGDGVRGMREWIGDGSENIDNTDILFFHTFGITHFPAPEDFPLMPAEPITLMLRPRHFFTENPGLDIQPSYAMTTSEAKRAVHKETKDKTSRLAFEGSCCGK

Regarding `NNc1ccccc1` [phenylhydrazine], the “rate of phenylhydrazone formation” value stood at 0.0078 ± 0.0007 s⁻¹.
